In patent publication US10253071B2, “Selectin inhibitors, composition, and uses related thereto” (Beth Israel Deaconess Medical Center, Inc., priority 2014, dated 2019):
pIC50: −log10 of the molar value. Square brackets hold non-standard residues; d marks the D form. Peptide text beside a SMILES is read from it. * marks the point of attachment. X1 = CC(=O)N[C@@H]1[C@@H](O[C@@H]2O[C@H](CO)[C@H](O)[C@H](O)[C@H]2O)[C@@H](O)[C@@H](CO[C@@H]2O[C@H](CO)[C@@H](O[C@@H]3O[C@H](CO)[C@H](O)[C@H](O[C@]4(C(=O)O)C[C@H](O)[C@@H](NC(C)=O)[C@H]([C@H](O)[C@H](O)CO)O4)[C@H]3O)[C@H](O[C@@H]3O[C@@H](C)[C@@H](O)[C@@H](O)[C@@H]3O)[C@H]2NC(C)=O)O[C@@H]1*; Phe(4-CH2SO3H) = N[C@@H](Cc1ccc(CS(=O)(=O)O)cc1)C(=O)O; Mca = COc1ccc2c(CC(=O)*)cc(=O)oc2c1

Assays:
[1] = biological target: T1, E-selectin (E-sel-Ig) (Homo sapiens, UniProt P16581); assay: Biacore binding assay, E-selectin; settings: compared with P-selectin
T1 sequence (P16581 22-610): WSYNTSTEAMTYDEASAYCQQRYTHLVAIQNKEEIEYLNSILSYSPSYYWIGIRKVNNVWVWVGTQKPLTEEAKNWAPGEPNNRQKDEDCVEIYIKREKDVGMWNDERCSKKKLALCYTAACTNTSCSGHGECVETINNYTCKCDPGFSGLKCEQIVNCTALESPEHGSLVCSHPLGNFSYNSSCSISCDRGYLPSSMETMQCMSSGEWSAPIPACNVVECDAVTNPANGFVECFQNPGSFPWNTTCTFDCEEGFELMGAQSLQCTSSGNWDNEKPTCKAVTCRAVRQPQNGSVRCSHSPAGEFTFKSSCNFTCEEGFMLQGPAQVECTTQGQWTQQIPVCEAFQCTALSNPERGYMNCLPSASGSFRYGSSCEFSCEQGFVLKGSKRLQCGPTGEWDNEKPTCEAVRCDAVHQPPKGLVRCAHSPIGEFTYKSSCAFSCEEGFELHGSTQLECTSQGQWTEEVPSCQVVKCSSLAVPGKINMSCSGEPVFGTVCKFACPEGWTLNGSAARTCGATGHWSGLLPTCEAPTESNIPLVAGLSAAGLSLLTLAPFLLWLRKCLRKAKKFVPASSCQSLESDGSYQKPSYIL
Method: (§1) Dissociation constants (Kd) were determined using a Biacore binding assay after initial capture of biotinylated GS(n)P-6 onto streptavidin-coated sensor chips followed by flow through of P-, L- or E-sel-Ig (2.5 to 60 μg/mL). […] The Kd of GSnP-6 to murine P-selectin was ˜9-fold lower than to human P-selectin.

[2] = biological target: T2, L-selectin (L-sel-Ig) (Homo sapiens, UniProt P14151); assay: Biacore binding assay, L-selectin; settings: compared with P-selectin
T2 sequence (P14151 39-372): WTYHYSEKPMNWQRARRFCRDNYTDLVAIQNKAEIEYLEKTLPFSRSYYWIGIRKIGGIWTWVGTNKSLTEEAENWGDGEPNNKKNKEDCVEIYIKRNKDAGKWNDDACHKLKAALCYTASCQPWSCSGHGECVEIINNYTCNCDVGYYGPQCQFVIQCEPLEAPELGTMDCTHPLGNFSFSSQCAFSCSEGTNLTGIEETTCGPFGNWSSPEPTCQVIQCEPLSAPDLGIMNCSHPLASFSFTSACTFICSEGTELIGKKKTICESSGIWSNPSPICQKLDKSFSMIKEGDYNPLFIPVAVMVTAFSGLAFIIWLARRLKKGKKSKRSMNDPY
Method: as §1

[3] = Chemical stability at low pH and at high temperature (RP-HPLC); format: physicochemical; settings: sodium acetate/acetic acid buffer pH 5, 37° C.; and 2 mM phosphate buffer pH 7.5, 60° C.
Method: Bound peptides were detected using Alexa-488 labeled anti-human IgG antibody (5 μg/mL). Three lectins RCA-1, AAL, and PNA were used to confirm the sequence of enzymatic steps. Monoclonal antibodies CHO131, PSG2 antibody and PL-1 were used to confirm the presence of SLex, tyrosine sulfates, and the peptide sequence, respectively. Biacore binding analysis to human P-selectin with observed rate constants for (D) GSnP-6, kon 3.1×10^5 M^−1s^−1, koff 6.9×10^3 M^−1s^−; GSn2P-6, kon6.4×10^5 M^−1s^−1, koff 6.8×10^3 M^−1s. Biacore binding analysis to mouse P-selectin with observed rate constants for (E) GsnP-6, kon 4.9×10^4 M^−1s^−1, koff 8.0×10^3 M^−1s^−; GSn2P-6 kon 5.3×10^4 M^−1s^−1, koff 9.0×10^3 M^−1s. (F) Temperature- and pH-dependent stability studies of GSnP-6.
The chemical stability of GSnP-6 was evaluated under low pH conditions by incubating the compound in sodium acetate/acetic acid buffer at pH 5, 37° C., as well as under high temperature conditions by incubation in 2 mM phosphate buffer at pH 7.5, 60° C. (FIG. 3E).

[4] = biological target: T3, Recombinant mouse L-selectin Fc chimera (Mus musculus, UniProt P18337); assay: Flow cytometry, inhibition of mouse L-selectin Fc chimera binding to murine neutrophils; format: cell-based; settings: chimera 2 μg/mL, read-out: IC50, PSGL-1/L-selectin interactions, murine neutrophils
T3 sequence (P18337 39-372): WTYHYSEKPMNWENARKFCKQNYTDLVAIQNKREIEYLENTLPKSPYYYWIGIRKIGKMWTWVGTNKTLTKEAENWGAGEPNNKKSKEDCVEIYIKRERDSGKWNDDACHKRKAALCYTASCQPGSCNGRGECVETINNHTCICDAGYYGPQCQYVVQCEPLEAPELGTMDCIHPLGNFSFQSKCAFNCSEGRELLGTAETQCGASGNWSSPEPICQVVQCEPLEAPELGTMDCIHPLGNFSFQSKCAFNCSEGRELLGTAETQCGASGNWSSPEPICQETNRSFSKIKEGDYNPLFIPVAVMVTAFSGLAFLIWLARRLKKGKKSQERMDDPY
Method: Flow cytometry was used to characterize the ability of GSnP-6 to block binding of selectin-IgG chimeras to murine and human leukocytes. Recombinant mouse P- or L-selectin Fc chimera (2 μg/mL) was incubated with murine neutrophils and GSnP-6 (0-30 μM). Likewise, recombinant human P-selectin or L-selectin Fc chimera were incubated with human peripheral blood neutrophils and monocytes, as well as the human U937 cell line in the presence of GSnP-6 (0-30 μM). Binding of selectin-IgG chimeras was detected with PE-conjugated anti-IgG antibody, quantified as mean fluorescent intensity, and plotted as percent inhibition. Specificity was confirmed with selectin-specific blocking antibodies.

[5] = tested on: leukocyte binding to microvascular endothelium; assay: Intravital microscopy of murine cremaster muscle microcirculation, leukocyte rolling; format: in vivo; settings: mouse cremaster venules 30 to 40 μm, 4 μmol/kg IV, saline 40.8±1.7, p≤0.01
Method: Intravital microscopy was used to determine the ability of GsnP-6 to inhibit leukocyte binding to microvascular endothelium. PSGL-1 expressed on circulating leukocytes binds to selectins on endothelium; inducing leukocyte rolling to facilitate subsequent tight binding to integrin receptors. Inhibition of this interaction leads to an increase in rolling velocity. Intravital microscopy of the murine cremaster muscle microcirculation was performed on venules with a diameter of 30 to 40 μm. Seven venules per mouse (n=4, saline (control); n=3, GSnP-6, 4 μmol/kg IV) were analyzed and the velocities of 5 to 10 rolling leukocytes were determined in each venule by individually tracking leukocyte distance/time (μm/s). A significant increase in mean rolling velocity was observed after intravenous administration of GSnP-6 (FIG. GsnP-6: 74.9±3.4 μm/s, saline: 40.8±1.7 μm/s; p≤0.01).

COc1ccc2c(CC(=O)NCCCC[C@H](N)C(=O)N[C@@H](CCC(=O)O)C(=O)N[C@@H](Cc3ccc(CS(=O)(=O)O)cc3)C(=O)N[C@@H](CCC(=O)O)C(=O)N[C@@H](Cc3ccc(CS(=O)(=O)O)cc3)C(=O)N[C@@H](CC(C)C)C(=O)N[C@@H](CC(=O)O)C(=O)N[C@@H](Cc3ccc(CS(=O)(=O)O)cc3)C(=O)N[C@@H](CC(=O)O)C(=O)N[C@@H](Cc3ccccc3)C(=O)N[C@@H](CC(C)C)C(=O)N3CCC[C@H]3C(=O)N[C@@H](CCC(=O)O)C(=O)N[C@H](C(=O)N[C@@H](CCC(=O)O)C(=O)N3CCC[C@H]3C(=O)N[C@@H](CC(C)C)C(=O)O)[C@@H](C)O[C@H]3O[C@H](CO[C@@H]4O[C@H](CO)[C@@H](O[C@@H]5O[C@H](CO)[C@H](O)[C@H](O[C@]6(C(=O)O)C[C@H](O)[C@@H](NC(C)=O)[C@H]([C@H](O)[C@H](O)CO)O6)[C@H]5O)[C@H](O[C@@H]5O[C@@H](C)[C@@H](O)[C@@H](O)[C@@H]5O)[C@H]4NC(C)=O)[C@H](O)[C@H](O[C@@H]4O[C@H](CO)[C@H](O)[C@H](O)[C@H]4O)[C@H]3NC(C)=O)cc(=O)oc2c1 [GSnP-6] (H-K(Mca)E[Phe(4-CH2SO3H)]E[Phe(4-CH2SO3H)]LD[Phe(4-CH2SO3H)]DFLPET(X1)EPL-OH)
apparent affinity to E-selectin [1]: even lower apparent affinity
apparent affinity to L-selectin [2]: even lower apparent affinity
chemical stability (degraded products by RP-HPLC) [3]: degraded products were not detected
pIC50 [4]: < 4.30
mean leukocyte rolling velocity [5]: increased leukocyte rolling velocity
mean leukocyte rolling velocity ([5]; listed as GsnP-6): 74.9±3.4 μm/s
